In patent EP0643699B1, “6-(2-HYDROXYETHYLAMINOALKYL)-5,11-DIOXO-5,6-DIHYDRO-11H- INDENO[1,2-C]ISOQUINOLINES AND THEIR USE AS ANTINEOPLASTIC AGENTS” (priority 1991, dated 1993):
Like-named read-outs stand apart in the source and are kept apart here. Marks after values point to notes of the source that are not given here.

Key:
Sa37 sarcoma = assay: Antitumour activity in S37 ascites sarcoma bearing mice (tumour weight, total ascitocrit, survival); format: in vivo, mice H
Description: (§1) The antineoplastic activity of the compounds of the invention has been investigated testing the compounds of the chemical group "in vivo" against experimental rodent tumors such as the solid form of Ehrlich tumour (STE, originally mammary adenocarcinoma), tumor HK (also transplantable originally mammary adenocarcinoma), Krebs' ascites tumour (Kr2), S37 ascites sarcoma, Nemeth-Keller lymphoma (NK), all maintained in mice H, Gardner lymphosarcoma (LsG, maintained in mice C3H), P388 and/or L1210 leukemia (maintained in DBA2 mice), B16 metastasizing melanocarcinoma (maintained in C57B1/6 mice) and Yoshida ascites reticulosarcoma (Y, maintained in Wistar rats) in experiments according to Jelinek, V. [Neoplasma 12, 469 (1965); ibid 7, 146 (1960)] and in "in vitro" experiments using radioactive precursors of nucleic acids and proteins according to Miko, M. et al. [Cancer Res 39, 4242 (1979); Neoplasma 26, 449 (1979); ibid 16, 161 (1969)] with minor modifications [Mattern, J.: Studies on the Drug Sensitivity of Short Term Cultured Tumour Cell Suspensions. In "Human Tumours in Short Term Culture" (Dendy, P.P. ed.), p.301, Academic Press 1976]. The Cox's proportional-hazards model was used for survival evaluation and optimal dose calculation according to Carter, V.H. et al. [cf Cancer Res. 42, 2963 (1982)].
Eighty female mice H weighing approximately 20 g were divided into four groups: one control group and three experimental groups of 20 animal each. A lethal dose of the Sa37 sarcoma ascitic fluid was implanted intraperitoneally to all the animals. The animals of test groups were treated using the compound suspended in water. The suspension contained the substance in such a concentration that dose 0.6, 0.4 and/or 0.2ml of the suspension p.o. was equal to dose 240, 160 and/or 80 mg/kg p.o., respectively. The drug was administered to the experimental animals once, a day after tumour transplantation. On the tenth day after the tumour transplantation, half of the animals in each group were killed by ether anaesthesia, ascites were emptied after laparotomia and the tumour weight was assessed in all animals from the weight difference before and after laparotomia and ascites removing. In ascites fluid the volume of tumour cell fraction was determined. The remaining animals were left to monitor the time of death and survival time was followed. […] It was also observed that the treated animals survived longer than untreated control animals. […] The results of the experiment are summarized in the following table: Antitumour activity of 6-[2-(2-hydroxyethyl)aminoethyl]5,11-dioxo-5,6-dihydro-11H-indeno[1,2-c]isoquinoline (the substance I, X=2) in S37 sarcoma bearing mice.
In an analogous experiment carried out on the animals with implanted Sa37 sarcoma the substance I (X=2) was administered in seven daily doses, and the substance I (X=3) in four days. The results of the experiment are summarized in the following table: Antitumour activity of 6-[2-(2-hydroxyethyl)aminoethyl]5,11-dioxo-5,6-dihydro-11H-indeno[1,2-c]isoquinoline (the substance I, X=2) and 6-[3-(2-hydroxyethyl)aminopropyl]5,11-dioxo-5,6-dihydro-11H-indeno[1,2-c]isoquinoline (the substance I, X=3) in S37 bearing mice.
In an experiment carried out on the animals with implanted Sa37 sarcoma the substance I (X=0) was administered in eight daily doses (analogously as in example 6).

L1210 = assay: Optimal dose (ED 95) in L1210 leukemia bearing mice; format: in vivo; conditions: L1210 bearing mice DBA2
Description: as §1, with “(1982)]. […]” for “(1982)].”

[1] = 10 mg/kg p.o., seven daily doses
[2] = 20 mg/kg p.o., seven daily doses
[3] = 30 mg/kg p.o., seven daily doses
[4] = 80 mg/kg p.o. once, a day after tumour transplantation, assessed on the tenth day
[5] = 160 mg/kg p.o. once, a day after tumour transplantation, assessed on the tenth day
[6] = 240 mg/kg p.o. once, a day after tumour transplantation, assessed on the tenth day

## O=C1c2ccccc2-c2c1c1ccccc1c(=O)n2CCNCCO [I (X=2), 6-[2-(2-hydroxyethyl)aminoethyl]-5,11-dioxo-5,6-dihydro-11H-indeno[1,2-c]isoquinoline]
Sa37 sarcoma; [1]
  Survival time (T/C, %): 129%
  Total ascitocrit (T/C, %): 73^b) %
  Tumour weight (T/C, %): 66^b) %
Sa37 sarcoma; [2]
  Survival time (T/C, %): 129^a) %
  Total ascitocrit (T/C, %): 73^a) %
  Tumour weight (T/C, %): 64^b) %
Sa37 sarcoma; [3]
  Survival time (T/C, %): 86%
  Total ascitocrit (T/C, %): 40^b) %
  Tumour weight (T/C, %): 32^b) %
Sa37 sarcoma; 80 mg/kg p.o. once, a day after tumour transplantation
  Survival time (T/C, %): 107%
Sa37 sarcoma; [4]
  Total ascitocrit (T/C, %): 64^c) %
  Tumour weight (T/C, %): 61^c) %
Sa37 sarcoma; 160 mg/kg p.o. once, a day after tumour transplantation
  Survival time (T/C, %): 111%
Sa37 sarcoma; [5]
  Total ascitocrit (T/C, %): 65^c) %
  Tumour weight (T/C, %): 59^c) %
Sa37 sarcoma; 240 mg/kg p.o. once, a day after tumour transplantation
  Survival time (T/C, %): 119^b) %
Sa37 sarcoma; [6]
  Total ascitocrit (T/C, %): 47^c) %
  Tumour weight (T/C, %): 42^c) %
L1210; Mus musculus, po, read-out: ED 95
  ED95: 225 mg/kg
L1210; p.o., dose per body surface
  ED95: 675 mg/m^2
